Assays:
Test in all cases: cells
HT = assay type: functional, cell-based; conditions: Homo sapiens
Description: SANGER: Inhibition of human HT cell growth in a cell viability assay.

SNU-387 = assay type: functional, cell-based, Homo sapiens; conditions: Homo sapiens, SNU-387
Description: SANGER: Inhibition of human SNU-387 cell growth in a cell viability assay.

M059J = assay type: functional, cell-based, Homo sapiens; conditions: Homo sapiens, M059J;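 note: growth inhibition of M059J cells, read out with a cell viability assay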
Description: SANGER: Inhibition of human M059J cell growth in a cell viability assay.

NCI-H2126 = assay type: functional, cell-based, Homo sapiens; conditions: Homo sapiens, NCI-H2126;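 note: growth inhibition of the cancer cell line, determined with a cell viability readout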
Description: SANGER: Inhibition of human NCI-H2126 cell growth in a cell viability assay.

A204 = assay type: functional, cell-based, Homo sapiens; conditions: Homo sapiens, A204;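 note: growth inhibition of human A204 cells, read out with a cell viability assay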
Description: SANGER: Inhibition of human A204 cell growth in a cell viability assay.

Lu-65 = assay type: functional, cell-based; conditions: Homo sapiens;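 note: growth inhibition of Lu-65 cancer cells, read out by a cell viability assay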
Description: SANGER: Inhibition of human LU-65 cell growth in a cell viability assay.

TGBC1TKB = assay type: functional, cell-based, Homo sapiens; conditions: Homo sapiens, TGBC1TKB;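 note: growth inhibition of TGBC1TKB cells, read out by a cell viability assay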
Description: SANGER: Inhibition of human TGBC1TKB cell growth in a cell viability assay.

IA-LM = assay type: functional, cell-based, Homo sapiens; conditions: Homo sapiens, IA-LM;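 note: cell viability assay measuring growth inhibition of human IA-LM cells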
Description: SANGER: Inhibition of human IA-LM cell growth in a cell viability assay.

NCI-H2030 = assay type: functional, cell-based, Homo sapiens; conditions: Homo sapiens, NCI-H2030;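 note: growth inhibition of human NCI-H2030 cells, read out by a cell viability assay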
Description: SANGER: Inhibition of human NCI-H2030 cell growth in a cell viability assay.

TYK-nu = assay type: functional, cell-based, Homo sapiens; conditions: Homo sapiens, TYK-nu;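 note: growth inhibition of human TYK-nu cells, read out by a cell viability assay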
Description: SANGER: Inhibition of human TYK-nu cell growth in a cell viability assay.

NCI-H747 = assay type: functional, cell-based; conditions: Homo sapiens;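 note: growth inhibition of human NCI-H747 cells, read out by a cell viability assay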
Description: SANGER: Inhibition of human NCI-H747 cell growth in a cell viability assay.

LNCaP-Clone-FGC = assay type: functional, cell-based, Homo sapiens; conditions: Homo sapiens, LNCaP-Clone-FGC
Description: SANGER: Inhibition of human LNCaP-Clone-FGC cell growth in a cell viability assay.

KYSE-510 = assay type: functional, cell-based, Homo sapiens; conditions: Homo sapiens, KYSE-510;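 note: cell viability readout used to measure how strongly growth of the cell line is suppressed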
Description: SANGER: Inhibition of human KYSE-510 cell growth in a cell viability assay.

DB = assay type: functional, cell-based; conditions: Homo sapiens
Description: SANGER: Inhibition of human DB cell growth in a cell viability assay.

PFSK-1 = assay type: functional, cell-based, Homo sapiens; conditions: Homo sapiens, PFSK-1;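 note: cell viability assay measuring how strongly compounds suppress growth of human PFSK-1 cells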
Description: SANGER: Inhibition of human PFSK-1 cell growth in a cell viability assay.

Ca-Ski = assay type: functional, cell-based; conditions: Homo sapiens;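 note: cell viability assay measuring inhibition of Ca-Ski cell growth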
Description: SANGER: Inhibition of human Ca-Ski cell growth in a cell viability assay.

KYSE-450 = assay type: functional, cell-based; conditions: Homo sapiens;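 note: cell growth inhibition measured by a viability assay in human KYSE-450 cells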
Description: SANGER: Inhibition of human KYSE-450 cell growth in a cell viability assay.

LXF-289 cell line = assay type: functional, cell-based, Homo sapiens; conditions: Homo sapiens, LXF-289
Description: SANGER: Inhibition of human LXF-289 cell growth in a cell viability assay.

SK-MEL-28 = assay type: functional, cell-based; conditions: Homo sapiens;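 note: growth inhibition of human SK-MEL-28 cells, read out with a cell viability assay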
Description: SANGER: Inhibition of human SK-MEL-28 cell growth in a cell viability assay.

KYSE-270 = assay type: functional, cell-based, Homo sapiens; conditions: Homo sapiens, KYSE-270;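 note: cell growth inhibition measured with a viability assay in the human KYSE-270 line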
Description: SANGER: Inhibition of human KYSE-270 cell growth in a cell viability assay.

RT-112 = assay type: functional, cell-based, Homo sapiens; conditions: Homo sapiens, RT-112
Description: SANGER: Inhibition of human RT-112 cell growth in a cell viability assay.

GCT = assay type: functional, cell-based, Homo sapiens; conditions: Homo sapiens, GCT;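 note: GCT cell line proliferation inhibition, read out with a cell viability assay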
Description: SANGER: Inhibition of human GCT cell growth in a cell viability assay.

Detroit 562 = assay type: functional, cell-based, Homo sapiens; conditions: Homo sapiens, Detroit 562;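 note: growth inhibition of human Detroit 562 cells, read out by a cell viability assay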
Description: SANGER: Inhibition of human Detroit562 cell growth in a cell viability assay.

DoTc2-4510 = assay type: functional, cell-based, Homo sapiens; conditions: Homo sapiens, DoTc2-4510
A4-Fuk = assay type: functional, cell-based; conditions: Homo sapiens;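 note: growth inhibition of A4-Fuk cells, read out by a cell viability assay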
Description: SANGER: Inhibition of human A4-Fuk cell growth in a cell viability assay.

PANC-08-13 = assay type: functional, cell-based, Homo sapiens; conditions: Homo sapiens, PANC-08-13;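 note: cell growth inhibition, measured with a cell viability assay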
Description: SANGER: Inhibition of human PANC-08-13 cell growth in a cell viability assay.

SCH = assay type: functional, cell-based, Homo sapiens; conditions: Homo sapiens, SCH;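 note: growth inhibition of human SCH cells, read out in a cell viability assay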
Description: SANGER: Inhibition of human SCH cell growth in a cell viability assay.

TGBC24TKB = assay type: functional, cell-based, Homo sapiens; conditions: Homo sapiens, TGBC24TKB;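 note: growth inhibition of human TGBC24TKB cells, read out with a cell viability assay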
Description: SANGER: Inhibition of human TGBC24TKB cell growth in a cell viability assay.

TE-12 = assay type: functional, cell-based; conditions: Homo sapiens;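 note: growth inhibition of TE-12 cells, read out by a cell viability assay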
Description: SANGER: Inhibition of human TE-12 cell growth in a cell viability assay.

CAL-51 = assay type: functional, cell-based, Homo sapiens; conditions: Homo sapiens, CAL-51;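 note: human CAL-51 cell line, growth inhibition read out via a cell viability assay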
Description: SANGER: Inhibition of human CAL-51 cell growth in a cell viability assay.

HCC1419 = assay type: functional, cell-based, Homo sapiens; conditions: Homo sapiens, HCC1419;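 note: growth inhibition of human HCC1419 cells, read out as cell viability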
Description: SANGER: Inhibition of human HCC1419 cell growth in a cell viability assay.

ES4 = assay type: functional, cell-based, Homo sapiens; conditions: Homo sapiens, ES4;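 note: growth inhibition of human ES4 cells, read out by a cell viability assay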
Description: SANGER: Inhibition of human ES4 cell growth in a cell viability assay.

SW982 = assay type: functional, cell-based; conditions: Homo sapiens;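 note: growth inhibition of SW982 cells, read out with a cell viability assay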
Description: SANGER: Inhibition of human SW982 cell growth in a cell viability assay.

MKN-1 = assay type: functional, cell-based, Homo sapiens; conditions: Homo sapiens, MKN-1;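 note: growth inhibition of human MKN1 cells, read out by a cell viability measurement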
Description: SANGER: Inhibition of human MKN1 cell growth in a cell viability assay.

D-392MG = assay type: functional, cell-based, Homo sapiens; conditions: Homo sapiens, D-392MG
FTC-133 = assay type: functional, cell-based, Homo sapiens; conditions: Homo sapiens, FTC-133
SW13 = assay type: functional, cell-based, Homo sapiens; conditions: Homo sapiens, SW13;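 note: IC50 is inhibition of SW13 cell growth, read out with a cell viability assay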
Description: SANGER: Inhibition of human SW13 cell growth in a cell viability assay.

MHH-ES-1 = assay type: functional, cell-based, Homo sapiens; conditions: Homo sapiens, MHH-ES-1;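 note: cell growth inhibition measured by a cell viability assay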
Description: SANGER: Inhibition of human MHH-ES-1 cell growth in a cell viability assay.

SCC-25 = assay type: functional, cell-based, Homo sapiens; conditions: Homo sapiens, SCC-25;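 note: growth inhibition of SCC-25 cells, measured with a cell viability assay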
Description: SANGER: Inhibition of human SCC-25 cell growth in a cell viability assay.

MFE-280 = assay type: functional, cell-based, Homo sapiens; conditions: Homo sapiens, MFE-280;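 note: growth inhibition of MFE-280 cells, determined with a cell viability readout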
Description: SANGER: Inhibition of human MFE-280 cell growth in a cell viability assay.

ASPC1 = assay type: functional, cell-based, Homo sapiens; conditions: Homo sapiens, ASPC1;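 note: growth inhibition of AsPC-1 cells, read out with a cell viability assay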
Description: SANGER: Inhibition of human AsPC-1 cell growth in a cell viability assay.

NCI-H1623 = assay type: functional, cell-based, Homo sapiens; conditions: Homo sapiens, NCI-H1623;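 note: cell viability assay used as the read-out for growth inhibition of NCI-H1623 cells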
Description: SANGER: Inhibition of human NCI-H1623 cell growth in a cell viability assay.

LU-139 = assay type: functional, cell-based; conditions: Homo sapiens
Description: SANGER: Inhibition of human LU-139 cell growth in a cell viability assay.

LB2241-RCC = assay type: functional, cell-based, Homo sapiens; conditions: Homo sapiens, LB2241-RCC;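 note: cell viability assay measuring how strongly the cultured human renal carcinoma line is prevented from growing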
Description: SANGER: Inhibition of human LB2241-RCC cell growth in a cell viability assay.

KALS-1 = assay type: functional, cell-based, Homo sapiens; conditions: Homo sapiens, KALS-1;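 note: growth inhibition of KALS-1 cells, determined with a cell viability assay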
Description: SANGER: Inhibition of human KALS-1 cell growth in a cell viability assay.

HTC-C3 = assay type: functional, cell-based, Homo sapiens; conditions: Homo sapiens, HTC-C3;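 note: inhibition of cell growth, read out with a cell viability assay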
Description: SANGER: Inhibition of human HTC-C3 cell growth in a cell viability assay.

CAL-12T = assay type: functional, cell-based, Homo sapiens; conditions: Homo sapiens, CAL-12T;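 note: growth inhibition of human CAL-12T cells, read out with a cell viability assay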
Description: SANGER: Inhibition of human CAL-12T cell growth in a cell viability assay.

K5 = assay type: functional, cell-based, Homo sapiens; conditions: Homo sapiens, K5
Description: SANGER: Inhibition of human K5 cell growth in a cell viability assay.

ATN-1 = assay type: functional, cell-based; conditions: Homo sapiens;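 note: growth inhibition of human ATN-1 cells, read out with a cell viability assay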
Description: SANGER: Inhibition of human ATN-1 cell growth in a cell viability assay.

NCI-H526 = assay type: functional, cell-based; conditions: Homo sapiens;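 note: growth inhibition of the human NCI-H526 cell line, measured by a cell viability assay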
Description: SANGER: Inhibition of human NCI-H526 cell growth in a cell viability assay.

CC(=O)O[C@@H]1[C@@H](OC(C)=O)[C@@H](O)[C@H](Oc2c(-c3ccc(O)cc3)oc3cc(O)cc(O)c3c2=O)O[C@H]1C
IC50 (HT): > 10 µM
IC50 (SNU-387): > 10 µM
IC50 (M059J): > 10 µM
IC50 (NCI-H2126): > 10 µM
IC50 (A204): > 10 µM
IC50 (Lu-65): > 10 µM
IC50 (TGBC1TKB): > 10 µM
IC50 (IA-LM): > 10 µM
IC50 (NCI-H2030): > 10 µM
IC50 (TYK-nu): > 10 µM
IC50 (NCI-H747): > 10 µM
IC50 (LNCaP-Clone-FGC): > 10 µM
IC50 (KYSE-510): > 10 µM
IC50 (DB): > 10 µM
IC50 (PFSK-1): > 10 µM
IC50 (Ca-Ski): > 10 µM
IC50 (KYSE-450): > 10 µM
IC50 (LXF-289 cell line): > 10 µM
IC50 (SK-MEL-28): > 10 µM
IC50 (KYSE-270): > 10 µM
IC50 (RT-112): > 10 µM
IC50 (GCT): > 10 µM
IC50 (Detroit 562): > 10 µM
IC50 (DoTc2-4510): > 10 µM
IC50 (A4-Fuk): > 10 µM
IC50 (PANC-08-13): > 10 µM
IC50 (SCH): > 10 µM
IC50 (TGBC24TKB): > 10 µM
IC50 (TE-12): > 10 µM
IC50 (CAL-51): > 10 µM
IC50 (HCC1419): > 10 µM
IC50 (ES4): > 10 µM
IC50 (SW982): > 10 µM
IC50 (MKN-1): > 10 µM
IC50 (D-392MG): > 10 µM
IC50 (FTC-133): > 10 µM
IC50 (SW13): > 10 µM
IC50 (MHH-ES-1): > 10 µM
IC50 (SCC-25): > 10 µM
IC50 (MFE-280): > 10 µM
IC50 (ASPC1): > 10 µM
IC50 (NCI-H1623): > 10 µM
IC50 (LU-139): > 10 µM
IC50 (LB2241-RCC): > 10 µM
IC50 (KALS-1): > 10 µM
IC50 (HTC-C3): > 10 µM
IC50 (CAL-12T): > 10 µM
IC50 (K5): > 10 µM
IC50 (ATN-1): > 10 µM
IC50 (NCI-H526): > 10 µM

COc1cc(F)c(F)c(Nc2ccc(I)cc2F)c1NS(=O)(=O)C1(CC(O)CO)CC1 (centres undefined)
IC50 (HT): > 5 µM
IC50 (SNU-387): 2.42 µM
IC50 (M059J): > 5 µM
IC50 (NCI-H2126): > 5 µM
IC50 (A204): > 5 µM
IC50 (Lu-65): 3.28 µM
IC50 (TGBC1TKB): > 5 µM
IC50 (IA-LM): 4.19 µM
IC50 (NCI-H2030): > 5 µM
IC50 (TYK-nu): 0.441 µM
IC50 (NCI-H747): 0.657 µM
IC50 (LNCaP-Clone-FGC): > 5 µM
IC50 (KYSE-510): > 5 µM
IC50 (DB): > 5 µM
IC50 (PFSK-1): > 5 µM
IC50 (Ca-Ski): > 5 µM
IC50 (KYSE-450): > 5 µM
IC50 (LXF-289 cell line): 3.54 µM
IC50 (SK-MEL-28): 0.115 µM
IC50 (KYSE-270): > 5 µM
IC50 (RT-112): 1.59 µM
IC50 (GCT): > 5 µM
IC50 (Detroit 562): > 5 µM
IC50 (DoTc2-4510): > 5 µM
IC50 (A4-Fuk): 1.85 µM
IC50 (PANC-08-13): > 5 µM
IC50 (SCH): > 5 µM
IC50 (TGBC24TKB): > 5 µM
IC50 (TE-12): > 5 µM
IC50 (CAL-51): > 5 µM
IC50 (HCC1419): > 5 µM
IC50 (ES4): > 5 µM
IC50 (SW982): 0.436 µM
IC50 (MKN-1): > 5 µM
IC50 (D-392MG): > 5 µM
IC50 (FTC-133): 4.55 µM
IC50 (SW13): 4.33 µM
IC50 (MHH-ES-1): > 5 µM
IC50 (SCC-25): 0.49 µM
IC50 (MFE-280): > 5 µM
IC50 (ASPC1): 1.07 µM
IC50 (NCI-H1623): 1.78 µM
IC50 (LU-139): > 5 µM
IC50 (LB2241-RCC): 3.3 µM
IC50 (KALS-1): > 5 µM
IC50 (HTC-C3): 0.122 µM
IC50 (CAL-12T): 1.07 µM
IC50 (ATN-1): > 5 µM
IC50 (NCI-H526): > 5 µM

From ChEMBL document CHEMBL1201861, “Genomics of Drug Sensitity in Cancer screening data, Wellcome Trust Sanger Institute”
